Experimental findings from patent publication US8030443B2, “Squamous cell carcinoma antigen-derived peptide binding to HLA-A24 molecule” (Kurume University, priority 2005, dated 2011) are described below.

Each structure is given as a SMILES string. Residues, ends and D or L forms follow the SMILES beside them.

The data set relates to YES-2 (HLA-A24^+, SCCA^+) esophageal squamous cell carcinoma cells. In words: 6-h 51Cr-release cytotoxicity assay of peptide-stimulated CTLs. The data set is classed as cell-based, human. The text has this: Cultured cells in wells producing IFN-γ in response to a corresponding peptide were collected and further cultured with IL-2 alone for 10-14 days in order to obtain a sufficiently large number of cells to perform a standard 6-h ^51Cr-release assay. The following tumor cell lines were used as targets; YES-1 (HLA-A24^− and SCCA^+ esophageal squamous cell carcinoma), and YES-2 (HLA -A24^+ and SCCA^+ esophageal squamous cell carcinoma). Phytohemagglutinin (PHA)-stimulated blastoid T cells were also used as a negative control. In some experiments, 20 μg/ml of anti-HLA-class I (W6/32, IgG2a) (BioLegend, Camino Santa Fe, San Diego, Calif., USA), anti-HLA-class II (H-DR-1, IgG2a) (kindly provided by Dr. Yasuji NISHIMURA, KUMAMOTO UNIVERSITY, Japan), anti-CD4 (Nu-Th/i, IgG1) (established at Department of Immunology, Kurume University School of Medicine, Japan), or anti-CD8 (Nu-Ts/c, IgG2a) monoclonal antibody (mAb) (established at Department of Immunology, Kurume University School of Medicine, Japan) were added to the wells at the initiation of the assay. An anti-CD14 (JML-H14, IgG2a) mAb (established at Department of Immunology, Kurume University School of Medicine, Japan) was used as a negative control.

Turning to `CC[C@H](C)[C@H](NC(=O)CNC(=O)[C@H](CC(C)C)NC(=O)[C@H](CC(C)C)NC(=O)[C@H](CCC(N)=O)NC(=O)[C@H](CCC(N)=O)NC(=O)[C@H](CCCNC(=N)N)NC(=O)[C@H](CC(C)C)NC(=O)[C@H](Cc1ccc(O)cc1)NC(=O)[C@@H](N)CCCNC(=N)N)C(=O)O` [HIV peptide, RYLRQQLLGI, reference compound] (H-RYLRQQLLGI-OH), under “SCC patients (Pts 2, 5, 7, 8), targets YES-2, YES-1, PHA-stimulated T-cell blasts (FIG. 4B)”, the “Cytotoxicity of peptide-stimulated CTLs/PBMCs” value is listed as “did not show any cytotoxicity”. Consider `CC(C)C[C@H](NC(=O)[C@H](CO)NC(=O)[C@H](C)NC(=O)[C@H](Cc1ccccc1)NC(=O)[C@H](Cc1c[nH]cn1)NC(=O)[C@H](Cc1ccccc1)NC(=O)[C@H](CO)NC(=O)[C@@H](NC(=O)[C@H](Cc1ccc(O)cc1)NC(=O)[C@@H](N)CCC(N)=O)[C@@H](C)O)C(=O)O` [SCCA 215, QYTSFHFASL] (H-QYTSFHFASL-OH), for which the “Cytotoxicity of peptide-stimulated CTLs against YES-2 cells” value is listed as “exhibited cytotoxicity against YES-2 cells in an HLA class I-restricted manner”. On the same count and under the same terms, the value for `CC(C)C[C@H](NC(=O)[C@H](Cc1ccc(O)cc1)NC(=O)[C@H](CCC(=O)O)NC(=O)[C@H](CCC(N)=O)NC(=O)[C@H](CC(C)C)NC(=O)[C@H](Cc1ccccc1)NC(=O)[C@H](CC(C)C)NC(=O)[C@H](Cc1ccc(O)cc1)NC(=O)[C@@H](N)[C@@H](C)O)C(=O)O` [SCCA 112, TYLFLQEYL] (H-TYLFLQEYL-OH) was “exhibited cytotoxicity against YES-2 cells in an HLA class I-restricted manner”.
